# Legend:
# [1] = molecular target: T1, Protein kinase C (PKC) (Homo sapiens) (UniProt O94806+P41743+P17252+P05129+Q05655+P05771+Q05513+Q02156+P24723+Q15139+Q04759); assay: Inhibition of PKC in human SH-SY5Y cells assessed as inhibition of PMA-stimulated MARCKS phosphorylation at 3 uM preincubated for 1 hr followed by PMA-stimulation for 15 mins by Western blot analysis relative to control; type: cell-based
# Estrogen receptor = molecular target: T2, Estrogen receptor (Homo sapiens, UniProt P03372); assay: biochemical
# T2 sequence (P03372 whole entry): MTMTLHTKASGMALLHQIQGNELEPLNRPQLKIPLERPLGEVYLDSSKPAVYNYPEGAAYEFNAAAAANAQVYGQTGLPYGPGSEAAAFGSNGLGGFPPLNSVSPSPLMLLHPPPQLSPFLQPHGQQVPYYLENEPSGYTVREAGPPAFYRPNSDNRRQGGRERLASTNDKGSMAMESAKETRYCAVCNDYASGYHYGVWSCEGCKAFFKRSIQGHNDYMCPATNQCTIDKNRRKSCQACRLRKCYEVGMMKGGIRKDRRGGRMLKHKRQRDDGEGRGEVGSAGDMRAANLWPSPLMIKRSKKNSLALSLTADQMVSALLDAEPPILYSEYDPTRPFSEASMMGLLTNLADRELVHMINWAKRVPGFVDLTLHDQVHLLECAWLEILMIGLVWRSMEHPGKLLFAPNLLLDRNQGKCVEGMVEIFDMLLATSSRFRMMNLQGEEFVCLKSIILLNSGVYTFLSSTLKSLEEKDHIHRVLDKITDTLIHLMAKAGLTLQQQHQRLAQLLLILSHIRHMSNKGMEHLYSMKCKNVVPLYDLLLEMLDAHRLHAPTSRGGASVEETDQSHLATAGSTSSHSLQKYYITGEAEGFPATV
# Description: Displacement of Fluormone ES2 Green from human recombinant full length ERalpha expressed in insect cells measured up to 4 hrs by fluorescence polarization assay
# [2] = molecular target: T1, Protein kinase C (PKC) (Homo sapiens); assay: Inhibition of PKC in human SH-SY5Y cells assessed as inhibition of PMA-stimulated MARCKS phosphorylation at 10 uM preincubated for 1 hr followed by PMA-stimulation for 15 mins by Western blot analysis relative to control; type: cell-based
SMILES,inhibition [1] [%],IC50 (Estrogen receptor) [µM],inhibition [2] [%]
N#CC(=C(c1ccc(OCCN2CCOCC2)cc1)c1ccc(OCCN2CCOCC2)cc1)c1ccccc1,62,0.553,72
CN1CCN(CCOc2ccc(C(=C(C#N)c3ccccc3)c3ccc(OCCN4CCN(C)CC4)cc3)cc2)CC1,83,> 10,78
CCN(CC)CCOc1ccc(C(=C(C#N)c2ccccc2)c2ccc(OCCN(CC)CC)cc2)cc1,12,> 10,68
N#C/C(=C(\c1ccccc1)c1ccc(OCCN2CCOCC2)cc1)c1ccccc1,43,–,57
N#C/C(=C(/c1ccccc1)c1ccc(OCCN2CCOCC2)cc1)c1ccccc1,37,–,70

# Now from value to compound:
inhibition [1] [%],IC50 (Estrogen receptor) [µM],inhibition [2] [%],SMILES
39,> 10,68,CN(C)CCOc1ccc(C(=C(C#N)c2cccs2)c2ccc(OCCN(C)C)cc2)cc1
22,–,67,CN(C)CCOc1ccc(C(=C(C#N)c2ccccc2)c2ccccc2)cc1

# Reference: ChEMBL document CHEMBL3861995 (Bioorg Med Chem, 2016)
